Experimental findings from US20260001928A1 (CORTERIA PHARMACEUTICALS, priority 2022, published 2026) are described below.

*1 amine or outer side, *2 acyl side, *3 side chain or, on linkers, in order; H or OH if unused. Where a SMILES comes first, the peptide text is derived from it. Side-chain parts run from the residue outwards. [ ]: non-standard residue; d: D form. The star is where a group is joined. C18 diacid = O=C(O)CCCCCCCCCCCCCCCCC(=O)*; γGlu = O=C(O)[C@H](CCC(=O)[*:2])N[*:1]; αMeL = CC(C)C[C@](C)(N)C(=O)O; αMeK = C[C@](N)(CCCCN)C(=O)O; Api = NC1(C(=O)O)CCNCC1; Dap = NC[C@H](N)C(=O)O; AEEA = NCCOCCOCC(=O)O Bounds are passed on as bounds.

In one test the target is T1, human CRF2a receptor (Homo sapiens, UniProt Q13324).
T1 construct: expressed in transfected cells; host or cells: TeloHEAC cells
T1 sequence (Q13324 1-411): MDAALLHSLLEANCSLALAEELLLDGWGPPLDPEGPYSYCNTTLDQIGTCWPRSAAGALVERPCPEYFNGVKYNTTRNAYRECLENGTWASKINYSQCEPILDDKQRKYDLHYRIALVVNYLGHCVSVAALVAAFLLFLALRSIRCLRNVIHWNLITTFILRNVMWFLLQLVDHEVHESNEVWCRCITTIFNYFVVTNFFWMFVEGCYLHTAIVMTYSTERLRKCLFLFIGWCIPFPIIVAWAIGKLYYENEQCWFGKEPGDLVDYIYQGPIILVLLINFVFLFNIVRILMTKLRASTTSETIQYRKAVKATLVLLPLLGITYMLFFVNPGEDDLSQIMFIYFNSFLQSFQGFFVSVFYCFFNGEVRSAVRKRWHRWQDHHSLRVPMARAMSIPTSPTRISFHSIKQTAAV
The test is described as follows: Activity at human CRF2a receptor, cAMP functional assay in TeloHEAC cells. It is filed as cell-based. The settings on record: TeloHEAC cells stably expressing human CRF2a receptor, relative to urocortin 2 (100 nM = 100%). Summed up:
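cAMP accumulation was measured by HTRF 665/620 nm ratio after 30 min at 37° C compound exposure (16 twofold dilutions) of CRF2a-expressing TeloHEAC cells, 10000/well, in HEPES-buffered HBSS plus IBMX. Activity was normalised to urocortin 2 at 100 nM (100%), and EC50 was the concentration giving half-maximal activation.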

The target of a further test is T2, CFR1R receptor (Homo sapiens, UniProt P34998).
T2 construct: host or cells: CHO-K1 (clone 2)
T2 sequence (P34998 24-415): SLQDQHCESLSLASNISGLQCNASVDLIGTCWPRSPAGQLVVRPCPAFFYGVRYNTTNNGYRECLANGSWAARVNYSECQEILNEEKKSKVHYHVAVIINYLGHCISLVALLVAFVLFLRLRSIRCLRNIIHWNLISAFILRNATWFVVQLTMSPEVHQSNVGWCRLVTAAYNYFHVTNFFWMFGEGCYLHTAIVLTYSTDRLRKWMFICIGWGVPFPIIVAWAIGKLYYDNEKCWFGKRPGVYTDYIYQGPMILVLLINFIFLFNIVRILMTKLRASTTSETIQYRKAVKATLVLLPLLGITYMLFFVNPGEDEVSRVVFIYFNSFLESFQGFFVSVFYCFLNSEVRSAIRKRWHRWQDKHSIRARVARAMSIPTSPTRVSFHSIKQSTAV
The test is described as follows: Activity at anti-target CFR1R receptor, cAMP assay in CRF1R-overexpression CHO-K1 cells. The settings on record: 100% = Sauvagine at 100 nM; for EC50: cAMP. It counts as cell-based. Summed up:
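Run as for the TeloHAEC line, except the full-activation control well received Sauvagine (100 nM) and final density was 4000 cells/well. Cells from clone 2 came from frozen aliquots of near-confluent cultures.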
For orientation: cAMP levels reflect the balance of adenylyl cyclase and phosphodiesterase activity.

In general, EC50 refers to the concentration that produces a half-maximal response. A higher EC50 goes with weaker potency. Consider `CC[C@H](C)[C@H](NC(C)=O)C(=O)N[C@H](C(=O)N[C@@H](CC(C)C)C(=O)N[C@@H](CO)C(=O)N[C@@H](CC(C)C)C(=O)N[C@@H](CC(=O)O)C(=O)N[C@@H](C(=O)N1CCC[C@H]1C(=O)N[C@H](C(=O)N[C@@H](CCCCN)C(=O)N[C@@H](CC(C)C)C(=O)N[C@@H](CCCCNC(=O)COCCOCCNC(=O)COCCOCCNC(=O)CC[C@H](NC(=O)CCCCCCCCCCCCCCCCC(=O)O)C(=O)O)C(=O)N[C@@H](CCCCN)C(=O)N[C@H](C(=O)N[C@@H](CC(C)C)C(=O)N[C@@H](CC(C)C)C(=O)N[C@@H](CCC(=O)O)C(=O)N[C@@H](CCC(N)=O)C(=O)N[C@@H](CCC(=O)O)C(=O)N[C@@H](CCCCN)C(=O)N[C@@H](CCC(N)=O)C(=O)N[C@@H](CCCCN)C(=O)N[C@@H](CCCCN)C(=O)N[C@@H](CCC(N)=O)C(=O)N[C@@H](CCCNC(=N)N)C(=O)N[C@@H](CCC(=O)O)C(=O)N[C@@H](CCC(N)=O)C(=O)N[C@@H](C)C(=O)N[C@@H](CCC(=O)O)C(=O)N[C@H](C(=O)N[C@@H](CC(N)=O)C(=O)N[C@@](C)(CCCCN)C(=O)N[C@@H](CCC(N)=O)C(=O)N[C@H](C(=O)N[C@@H](CC(C)C)C(=O)N[C@@H](C)C(=O)N[C@@H](CCC(N)=O)C(=O)N[C@H](C(N)=O)C(C)C)[C@@H](C)CC)[C@@H](C)O)[C@@H](C)CC)[C@@H](C)CC)C(C)C)C(C)C` [compound 106] (Ac-IVLSLD[dV]PIKLK([AEEA-AEEA-γGlu-C18 diacid])KILLEQEKQKKQREQAETN[αMeK]QILAQV-NH2), for which, on human CRF2a receptor, the EC50 stood at 0.35 nM. In addition, at CFR1R receptor, the “Emax (% I)” value stood at 6 % I and the EC50 is greater than 250 nM.
The like results for `CC[C@H](C)[C@H](NC(C)=O)C(=O)N[C@H](C(=O)N[C@@H](CC(C)C)C(=O)N[C@@H](CO)C(=O)N[C@@H](CC(C)C)C(=O)N[C@@H](CC(=O)O)C(=O)N[C@@H](C(=O)N1CCC[C@H]1C(=O)N[C@H](C(=O)N[C@@H](CCCCN)C(=O)N[C@@H](CC(C)C)C(=O)N[C@@H](CCCCNC(=O)COCCOCCNC(=O)COCCOCCNC(=O)CC[C@H](NC(=O)CCCCCCCCCCCCCCCCC(=O)O)C(=O)O)C(=O)N[C@@H](CCCCN)C(=O)N[C@H](C(=O)N[C@@H](CC(C)C)C(=O)N[C@@H](CC(C)C)C(=O)N[C@@H](CCC(=O)O)C(=O)N[C@@H](CCC(N)=O)C(=O)N[C@@H](CCC(=O)O)C(=O)N[C@@H](CCCCN)C(=O)N[C@@H](CCC(N)=O)C(=O)N[C@@H](CCCCN)C(=O)N[C@@H](CCCCN)C(=O)N[C@@H](CCC(N)=O)C(=O)N[C@@H](CCCNC(=N)N)C(=O)N[C@@H](CCC(=O)O)C(=O)N[C@@H](CCC(N)=O)C(=O)N[C@@H](C)C(=O)N[C@@H](CCC(=O)O)C(=O)N[C@H](C(=O)N[C@@H](CC(N)=O)C(=O)N[C@@H](CN)C(=O)N[C@@H](CCC(N)=O)C(=O)N[C@H](C(=O)N[C@@H](CC(C)C)C(=O)N[C@@H](C)C(=O)N[C@@H](CCC(N)=O)C(=O)N[C@H](C(N)=O)C(C)C)[C@@H](C)CC)[C@@H](C)O)[C@@H](C)CC)[C@@H](C)CC)C(C)C)C(C)C` [compound 107] (Ac-IVLSLD[dV]PIKLK([AEEA-AEEA-γGlu-C18 diacid])KILLEQEKQKKQREQAETN[Dap]QILAQV-NH2) were, in that order, 1.43 nM, 0 % I and greater than 250 nM.
For `CC[C@H](C)[C@H](NC(C)=O)C(=O)N[C@H](C(=O)N[C@@H](CC(C)C)C(=O)N[C@@H](CO)C(=O)N[C@@H](CC(C)C)C(=O)N[C@@H](CC(=O)O)C(=O)N[C@@H](C(=O)N1CCC[C@H]1C(=O)N[C@H](C(=O)N[C@@H](CCCCN)C(=O)N[C@@H](CC(C)C)C(=O)N[C@@H](CCCCNC(=O)COCCOCCNC(=O)COCCOCCNC(=O)CC[C@H](NC(=O)CCCCCCCCCCCCCCCCC(=O)O)C(=O)O)C(=O)N[C@@H](CCCCN)C(=O)N[C@H](C(=O)N[C@@H](CC(C)C)C(=O)N[C@@H](CC(C)C)C(=O)N[C@@H](CCC(=O)O)C(=O)N[C@@H](CCC(N)=O)C(=O)N[C@@H](CCC(=O)O)C(=O)N[C@@H](CCCCN)C(=O)N[C@@H](CCC(N)=O)C(=O)N[C@@H](CCCCN)C(=O)N[C@@H](CCCCN)C(=O)N[C@@H](CCC(N)=O)C(=O)N[C@@H](CCCNC(=N)N)C(=O)N[C@@H](CCC(=O)O)C(=O)N[C@@H](CCC(N)=O)C(=O)N[C@@H](C)C(=O)N[C@@H](CCC(=O)O)C(=O)N[C@H](C(=O)N[C@@H](CC(N)=O)C(=O)N[C@@H](CCC(=O)O)C(=O)N[C@@H](CCC(N)=O)C(=O)N[C@H](C(=O)N[C@@H](CC(C)C)C(=O)N[C@@H](C)C(=O)N[C@@H](CCC(N)=O)C(=O)N[C@H](C(N)=O)C(C)C)[C@@H](C)CC)[C@@H](C)O)[C@@H](C)CC)[C@@H](C)CC)C(C)C)C(C)C` [compound 108] (Ac-IVLSLD[dV]PIKLK([AEEA-AEEA-γGlu-C18 diacid])KILLEQEKQKKQREQAETNEQILAQV-NH2) the same measures were 1.14 nM, 4 % I and greater than 250 nM.
For `CC[C@H](C)[C@H](NC(C)=O)C(=O)N[C@H](C(=O)N[C@@H](CC(C)C)C(=O)N[C@@H](CO)C(=O)N[C@@H](CC(C)C)C(=O)N[C@@H](CC(=O)O)C(=O)N[C@@H](C(=O)N1CCC[C@H]1C(=O)N[C@H](C(=O)N[C@@H](CCCCN)C(=O)N[C@@H](CC(C)C)C(=O)N[C@@H](CCCCNC(=O)COCCOCCNC(=O)COCCOCCNC(=O)CC[C@H](NC(=O)CCCCCCCCCCCCCCCCC(=O)O)C(=O)O)C(=O)N[C@@H](CCCCN)C(=O)N[C@H](C(=O)N[C@@H](CC(C)C)C(=O)N[C@@H](CC(C)C)C(=O)N[C@@H](CCC(=O)O)C(=O)N[C@@H](CCC(N)=O)C(=O)N[C@@H](CCC(=O)O)C(=O)N[C@@H](CCCCN)C(=O)N[C@@H](CCC(N)=O)C(=O)N[C@@H](CCCCN)C(=O)N[C@@H](CCCCN)C(=O)N[C@@H](CCC(N)=O)C(=O)N[C@@H](CCCNC(=N)N)C(=O)N[C@@H](CCC(=O)O)C(=O)N[C@@H](CCC(N)=O)C(=O)N[C@@H](C)C(=O)N[C@@H](CCC(=O)O)C(=O)N[C@H](C(=O)N[C@@H](CC(N)=O)C(=O)NC1(C(=O)N[C@@H](CCC(N)=O)C(=O)N[C@H](C(=O)N[C@@H](CC(C)C)C(=O)N[C@@H](C)C(=O)N[C@@H](CCC(N)=O)C(=O)N[C@H](C(N)=O)C(C)C)[C@@H](C)CC)CCNCC1)[C@@H](C)O)[C@@H](C)CC)[C@@H](C)CC)C(C)C)C(C)C` [compound 109] (Ac-IVLSLD[dV]PIKLK([AEEA-AEEA-γGlu-C18 diacid])KILLEQEKQKKQREQAETN[Api]QILAQV-NH2) the same measures were 1 nM, 4 % I and greater than 250 nM.
Compound `CC[C@H](C)[C@H](NC(C)=O)C(=O)N[C@H](C(=O)N[C@@H](CC(C)C)C(=O)N[C@@H](CO)C(=O)N[C@@H](CC(C)C)C(=O)N[C@@H](CC(=O)O)C(=O)N[C@@H](C(=O)N1CCC[C@H]1C(=O)N[C@H](C(=O)N[C@@H](CCCCN)C(=O)N[C@@](C)(CC(C)C)C(=O)N[C@@H](CCCCNC(=O)COCCOCCNC(=O)COCCOCCNC(=O)CC[C@H](NC(=O)CCCCCCCCCCCCCCCCC(=O)O)C(=O)O)C(=O)N[C@@H](CCCCN)C(=O)N[C@H](C(=O)N[C@@H](CC(C)C)C(=O)N[C@@H](CC(C)C)C(=O)N[C@@H](CCC(=O)O)C(=O)N[C@@H](CCC(N)=O)C(=O)N[C@@H](CCC(=O)O)C(=O)N[C@@H](CCCCN)C(=O)N[C@@H](CCC(N)=O)C(=O)N[C@@H](CCCCN)C(=O)N[C@@H](CCCCN)C(=O)N[C@@H](CCC(N)=O)C(=O)N[C@@H](CCCNC(=N)N)C(=O)N[C@@H](CCC(=O)O)C(=O)N[C@@H](CCC(N)=O)C(=O)N[C@@H](C)C(=O)N[C@@H](CCC(=O)O)C(=O)N[C@H](C(=O)N[C@@H](CC(N)=O)C(=O)N[C@H](C(=O)N[C@@H](CCC(N)=O)C(=O)N[C@H](C(=O)N[C@@H](CC(C)C)C(=O)N[C@@H](C)C(=O)N[C@@H](CCC(N)=O)C(=O)N[C@H](C(N)=O)C(C)C)[C@@H](C)CC)C(C)C)[C@@H](C)O)[C@@H](C)CC)[C@@H](C)CC)C(C)C)C(C)C` [compound 111] (Ac-IVLSLD[dV]PIK[αMeL]K([AEEA-AEEA-γGlu-C18 diacid])KILLEQEKQKKQREQAETNVQILAQV-NH2) gave an EC50 at human CRF2a receptor of 2.58 nM. For the same compound, on CFR1R receptor, the “Emax (% I)” value is given as −3 % I and the EC50 was greater than 250 nM.
